Source: patent US20100184807A1, “Methods to inhibit tumor cell growth by using proton pump inhibitors” (Bio-Quant, Inc., priority 2008, published 2010)

Assays:
[1] = test system: GDM-1 (leukemia); test: MTT tumor cell growth assay; type: cell-based
Experimental: (§1) In one study, adherent cells were plated approximately 16-24 hours before the day of the experiment in 180 μl growth media. On the day of the experiment, the plated adherent cells were analyzed and counted and suspension cells were plated in 180 μl growth media. 10× lansoprazole compounds and vehicle was prepared. The 10× lansoprazole compounds were prepared by diluting lansoprazole to final concentrations of 100 μM, 30 μM, 10 μM, 3 μM, and 1 μM. A vehicle was prepared by preparing a solution of PBS, equivalent to the volume used for 10 μM lansoprazole wherein the 1× solution constitutes ˜0.06% PBS. 10 μl of the various 10× lansoprazole solutions and the vehicle were added to the cells. The cells were incubated at 37° C., 5% CO2 for 48 hours. The media was then aspirated. The cell suspension was then spun at 1500 RPM for 10 minutes. The media was slowly removed. 200 μl of MTT solution was added to each well with a concentration of 0.863 mg/ml MTT in the growth media. The cells were incubated at 37° C., 5% CO2 for 4 hours and the medium is then aspirated. The plate containing the cell suspension was then spun at 1500 RPM for 10 minutes. The media was slowly removed using a multichannel pipettor. 100 μl of DMSO was then added to each well. The cells were incubated at 37° C., 5% CO2 for 5 minutes and the absorbance was obtained at 560 nm using a Dynex Opsys MR plate reader. The cells used for this procedure were the following cell lines: IGROV1 (ovarian cancer); OVCAR 8 (ovarian cancer); ES-2 (ovarian cancer); CAOV3 (ovarian cancer); OVCAR5 (ovarian cancer); SUDHL4 (lymphoma); RPMI8226 (myeloma); RPMI6666 (Hodgkin's lymphoma); NC37 (lymphoma); GDM-1 (leukemia); MC/CAR (prostate cancer); DU-145 (prostate cancer), J45-01 (leukemia), MOLT3 (leukemia), HUT78, J-gamma-1 (leukemia), MCF7 […], COL0205 (colon cancer), HL60 CLONE 15 (leukemia), T47D (breast cancer), P116 (intestinal cancer), KU812 (leukemia), SW620 (colon cancer), MK92-M1 (lymphoma), MV-4-11 (leukemia), HS578T (breast cancer), HT29 (colon cancer), HCT 116 (colon cancer), CAKI-1 (kidney cancer), A549 (lung cancer), H460 (lung cancer), A3 (colon cancer), MDA-MB231 […], MALME 3M (melanoma), RXF393 (kidney cancer), RS4.11 (leukemia), PC3 (prostate cancer), OVCAR3 (ovarian cancer), MDA-MB435 (melanoma), HUT102 (lymphoma), HL60 (leukemia), CCRF-CEM (leukemia), HUT78 (lymphoma), 786-O (kidney cancer), ACHN (kidney cancer), A498 (kidney cancer), H226 (lung cancer), H522 (lung cancer), HOP92 (lung cancer), SNB 19 (brain cancer), OVCAR4 (ovarian cancer), H9 (lymphoma), UO-31 (kidney cancer), HH (lymphoma), DAUDI (leukemia), LOXIMVI (melanoma), NAMALWA (lymphoma), EKVX (lung cancer), DOHH2 (lymphoma), SNB75 (brain cancer), SKMEL28 (melanoma), SKMEL5 (melanoma), SKMEL2 (melanoma), M14 (melanoma), UACC 257 (melanoma), H332M (lung cancer), KM12 (colon cancer), HCC2998 (colon cancer), G401 (kidney cancer), RS1184 (lymphoma), MC116 (leukemia), MOLT4 (leukemia), JM1 (liver cancer), HOP-62 (lung cancer), HCT-15 (colon cancer), SF-539 (brain cancer), SF295 (brain cancer), ST486 (lymphoma), U251 (brain cancer), and UACC-62 (melanoma).
(§2) Experiments, as described in Example I were conducted with lansoprazole, omeprazole and SCH 28080 at concentrations of 1 μM, 10 μM, and 100 μM. FIGS. 3A-3K show the experimental results when tumor cells from the following cell lines were treated with lansoprazole, omeprazole, and SCH 28080: IGROV1 (FIG. 3A), OVCAR8 (FIG. 3B), ES-2 (FIG. 3C), CAOV3 (FIG. 3D), OVCAR5 (FIG. 3E), SUDHL4 (FIG. 3F), RPMI8226 (FIG. 3G), RPMI6666 (FIG. 3H), NC37 (FIG. 3I), GDM-1 (FIG. 3J), and MC/CAR (FIG. 3K).

[2] = test system: MC/CAR (prostate cancer); test: MTT tumor cell growth assay; type: cell-based
Experimental: as §1, §2

[3] = test system: NC37 (lymphoma); test: MTT tumor cell growth assay; type: cell-based
Experimental: as §1, §2

[4] = test system: OVCAR5 (ovarian cancer); test: MTT tumor cell growth assay; type: cell-based
Experimental: as §1, §2

[5] = test system: RPMI6666 (Hodgkin's lymphoma); test: MTT tumor cell growth assay; type: cell-based
Experimental: as §1, §2

[6] = test system: RPMI8226 (myeloma); test: MTT tumor cell growth assay; type: cell-based
Experimental: as §1, §2

[7] = test system: SUDHL4 (lymphoma); test: MTT tumor cell growth assay; type: cell-based
Experimental: as §1, §2

[8] = test system: G401 rhabdoid (kidney) cancer cells; test: Xenograft nude mouse model, G401; type: in vivo; details: nude mice, 100 mg/kg in PEG300
Experimental: (§3) JR (rhabdomyosarcoma), HepG2 (liver carcinoma), SR Liquid Leukemia (leukemia), RSI 184 B Lymphoma (lymphoma), and G401 rhabdoid (kidney) cancer cells for use in a xenograft mouse model were collected from JR, HepG2, SR Liquid Leukemia, RS1184 B Lymphoma, and G401 rhabdoid tumor cell lines and injected at 5×10^6 cells per nude mouse in a volume of 100 μl subcutaneously. The animals were examined three times weekly to determine the progression of the tumors and determine body weight. Dosing started when tumors reached the ˜75-150 mm^3 size. Animals were randomized and distributed in groups in such a way that mean tumor weights in all groups were within 15% of the mean tumor weight in Group 1 (Control—vehicle group). Upon reaching the ˜75-150 mm^3 target size an effective amount of lansoprazole was administered to the mice in a suspension of PEG300 at a concentration of 100 mg/kg.

[9] = test system: SR Liquid Leukemia (leukemia); test: Xenograft nude mouse model, SR Liquid Leukemia; type: in vivo; details: nude mice, 100 mg/kg in PEG300
Experimental: as §3

## Cc1c(OCC(F)(F)F)ccnc1C[S+]([O-])c1nc2ccccc2[nH]1 (stereo not shown) [lansoprazole]
[1]; GDM-1 (FIG. 3J), 10 μM
  reducing tumor cell growth: effective in reducing tumor cell growth
[1]; GDM-1 cells, lansoprazole 1-100 μM, 48 hours, MTT
  tumor cell growth reduction: significant tumor cell growth reduction
[2]; MC/CAR (FIG. 3K), 100 μM
  reducing tumor cell growth: effective in reducing tumor cell growth
[2]; MC/CAR cells, lansoprazole 1-100 μM, 48 hours, MTT
  tumor cell growth reduction: significant tumor cell growth reduction
[3]; NC37 (FIG. 3I), 100 μM
  reducing tumor cell growth: effective in reducing tumor cell growth
[3]; NC37 cells, lansoprazole 1-100 μM, 48 hours, MTT
  tumor cell growth reduction: significant tumor cell growth reduction
[4]; OVCAR5 (FIG. 3E), 100 μM
  reducing tumor cell growth: effective in reducing tumor cell growth
[4]; OVCAR5 cells, lansoprazole 1-100 μM, 48 hours, MTT
  tumor cell growth reduction: significant tumor cell growth reduction
[5]; RPMI6666 (FIG. 3H), 100 μM
  reducing tumor cell growth: effective in reducing tumor cell growth
[5]; RPMI6666 cells, lansoprazole 1-100 μM, 48 hours, MTT
  tumor cell growth reduction: significant tumor cell growth reduction
[6]; RPMI8226 (FIG. 3G), 100 μM
  reducing tumor cell growth: effective in reducing tumor cell growth
[6]; RPMI8226 cells, lansoprazole 1-100 μM, 48 hours, MTT
  tumor cell growth reduction: significant tumor cell growth reduction
[7]; SUDHL4 (FIG. 3F), 100 μM
  reducing tumor cell growth: effective in reducing tumor cell growth
[7]; SUDHL4 cells, lansoprazole 1-100 μM, 48 hours, MTT
  tumor cell growth reduction: significant tumor cell growth reduction
[8]
  treating tumor cells derived from tumor cell line: especially effective
[9]
  treating tumor cells derived from tumor cell line: especially effective
